Results from patent US20200368198A1, “METHODS FOR INCREASING FERTILITY” (NEWSOUTH INNOVATIONS PTY LIMITED, priority 2017, published 2020).
Where “and” joins values, the source holds several entries; their conditions need not be identical. Equal entries are not always repeated. Entries after “also recorded” stand apart in the source; their conditions may differ.

Legend:
[1] = tested on: C57BL6 female mice; assay: Cumulus oocyte complex yield after PMSG, cisplatin with or without NMN; assay type: in vivo; settings: per mouse, single dose cisplatin 5 mg/kg i.p. and/or NMN 2 g/L drinking water, two months later
Experimental: (§1) To assess oocyte yield, and mice were hormonally stimulated to superovulated by intraperitoneal injection with 7.5 IU/mL of Pregnant Mare's Serum Gonadotropin (PMSG) (Folligon; Intervet, Boxmeer, Holland) to stimulate follicular growth. After 44-46 hours, ovaries were collected in HEPES-buffered minimum essential medium (aMEM; Gibco Life Technologies, Grand Island, N.Y.) supplemented with 50 µM of 3-isobuty-1-methylxanthine (IBMX) (Sigma aldrich, NSW, AU) (M2 medium) to maintain meitotic arrest at germinal vesicle stage. Cumulus oocyte complexes (COCs) were isolated from preovulatory follicles using a 27-gauge needle and collected using flame-pulled borosilicate Pasteur pipettes in M2 medium supplemented with 3 mg/ml bovine serum albumin (BSA; Sigma Aldrich, St. Louis, Mo.) and 100 μM IBMX (Sigma Aldrich). Cumulus oocyte complexes (COCs) were mechanically denuded of cumulus cells by pipetting, and the denuded oocytes were transferred to another dish containing a drop of fresh M2-medium plus IBMX on heat block with 37° C. with lid to protect oocytes from light. […]

[2] = tested on: oocytes; assay: Meiotic progression (GVBD, PBE) of harvested oocytes, doxorubicin with or without NMN; assay type: in vivo, mice; settings: doxorubicin and/or NMN
From the text: Once harvested from ovaries, oocytes were stored in IBMX media to prevent progression into meiosis.

[3] = tested on: C57BL6 female mice; assay: Cumulus oocyte complex yield after PMSG superovulation, doxorubicin with or without NMN; assay type: in vivo; settings: per mouse, single dose doxorubicin 10 mg/kg i.p. and/or NMN 2 g/L drinking water, 2 months post doxorubicin
Experimental: To assess oocyte yield, and mice were hormonally stimulated to superovulated by intraperitoneal injection with 7.5 IU/mL of Pregnant Mare's Serum Gonadotropin (PMSG) (Folligon; Intervet, Boxmeer, Holland) to stimulate follicular growth. After 44-46 hours, ovaries were collected in HEPES-buffered minimum essential medium (aMEM; […] Sigma Aldrich, St. Louis, Mo.) and 100 μM IBMX (Sigma Aldrich). […] NMN was delivered through addition to drinking water at 2 g/L, for a final dose of approximately 165 mg/kg. Administration of NMN began one day prior to doxorubicin administration. […] Ovaries were then punctured to release MI oocytes. In a separate cohort of animals, the same experiment was repeated using animals treated with the platinum based chemotherapy drug cisplatin. In FIG. 6 and Table 1, numbers of cumulus oocyte complexes are listed.

[4] = tested on: offspring of C57BL6 females; assay: Offspring of NMN treated females: development and glucose tolerance; assay type: in vivo, mice; settings: offspring from NMN treated versus untreated females
From the text: FIG. 5. Offspring from NMN treated females, or non-NMN treated females, were maintained on a chow diet or subjected to feeding of a high fat diet (HFD) from 8 weeks of age. A) is a graph of body weights of animals until 23 weeks of age. B) is a graph of fat mass of animals after 7 weeks of HFD feeding. C) is a graph of glucose tolerance test in animals at 7 weeks after chow or HFD feeding (2 g/kg, 6 hr fast). D) is a graph of area under the curve for glucose tolerance tests. Each group represents offspring from at least 7 different females. Error bars are SD.
To determine whether NMN treatment could improve overall, functional fertility, we conducted a breeding trial in C57BL6 mice. Both pregnancy success rates and litter size (FIG. 4A) were improved in animals that received NMN, further confirming the importance of this mechanism to female fertility. Offspring from females that received NMN treatment developed at a similar rate to offspring from untreated females, even after challenging with high fat feeding (FIG. 5A and 5B).

[5] = tested on: C57BL6 females; assay: Reversal design: oocyte yield, cisplatin followed by NMN 4 weeks later; assay type: in vivo, mice; settings: cisplatin 5 mg/kg i.p., per mouse
Experimental: To assess oocyte yield, and mice were hormonally stimulated to superovulated by intraperitoneal injection with 7.5 IU/mL of Pregnant Mare's Serum Gonadotropin (PMSG) (Folligon; Intervet, Boxmeer, Holland) to stimulate follicular growth. After 44-46 hours, ovaries were collected in HEPES-buffered minimum essential medium (aMEM; Gibco Life Technologies, Grand Island, N.Y.) supplemented with 50 µM of 3-isobuty-1-methylxanthine (IBMX) (Sigma aldrich, NSW, AU) (M2 medium) to maintain meitotic arrest at germinal vesicle stage. Cumulus oocyte complexes (COCs) were isolated from preovulatory follicles using a 27-gauge needle and collected using flame-pulled borosilicate Pasteur pipettes in M2 medium supplemented with 3 mg/ml bovine serum albumin (BSA; Sigma Aldrich, St. Louis, Mo.) and 100 μM IBMX (Sigma Aldrich). Cumulus oocyte complexes (COCs) were mechanically denuded of cumulus cells by pipetting, and the denuded oocytes were transferred to another dish containing a drop of fresh M2-medium plus IBMX on heat block with 37° C. with lid to protect oocytes from light.
Next, we decided to investigate whether NMN treatment delivered some time following chemotherapy treatment could actively reverse chemotherapy induced infertility. […]

[6] = tested on: C57BL6 and SwissTacAusb female mice; assay: Oocyte yield in aged mice treated with NMN; assay type: in vivo; settings: 15 month-old mice, NMN drinking water 2 g/L, 4 weeks, versus untreated
Experimental: as §1, with “Aldrich).” for “Aldrich). Cumulus oocyte complexes (COCs) were mechanically denuded of cumulus cells by pipetting, and the denuded oocytes were transferred to another dish containing a drop of fresh M2-medium plus IBMX on heat block with 37° C. with lid to protect oocytes from light.”
Systemic treatment with the NAD^+ precursor nicotinamide mononucleotide (NMN) increases intracellular NAD^+ levels, and we hypothesised that NMN treatment could restore the activity of SIRT2 to stabilise BubR1 and maintain oocyte reserve and competence into later ages. […] Animals were super-ovulated, and oocyte yield was assessed. […]

[7] = tested on: C57BL6 females; assay: Reversal design: pups born after chemotherapy followed by NMN; assay type: in vivo, mice; settings: cisplatin 5 mg/kg i.p., NMN delivered well after chemotherapy; 6 mating rounds
From the text: In Examples 2-4, it was shown that co-treatment with NMN during chemotherapy treatment could protect against infertility. Next, we decided to investigate whether NMN treatment delivered some time following chemotherapy treatment could actively reverse chemotherapy induced infertility. […] The rationale of this experimental design is to investigate whether NMN has the ability to induce regeneration of the ovary. According to the standard dogma of reproductive biology, mammals are born with a set number of follicles which are slowly released as oocytes over the course of a lifetime, with the ovaries incapable of regenerating new follicles.

[8] = tested on: SwissTacAusb female mice; assay: Oocyte yield in high fat fed mice treated with NMN; assay type: in vivo; settings: SwissTacAusb females, 3 months high fat feeding; NMN versus untreated high fat fed littermates
From the text: Systemic treatment with the NAD^+ precursor nicotinamide mononucleotide (NMN) increases intracellular NAD^+ levels, and we hypothesised that NMN treatment could restore the activity of SIRT2 to stabilise BubR1 and maintain oocyte reserve and competence into later ages. We obtained 15 month-old female mice, an age at which this species is functionally infertile, and treated them with NMN through addition to drinking water (2 g/L) for 4 weeks. Animals were super-ovulated, and oocyte yield was assessed. […] Obesity is a major risk factor for female infertility, and to assess whether a similar mechanism was at work, we subjected young SwissTacAusb female mice to 3 months of high fat feeding, followed by NMN treatment for 4 weeks.

## NC(=O)c1ccc[n+]([C@@H]2O[C@H](COP(=O)([O-])O)[C@@H](O)[C@H]2O)c1 [NMN, nicotinamide mononucleotide]
[1]
  Numbers of cumulus oocyte complexes released from mice: completely rescued and 16 and 14 and 17 and 12 and 13 and 11
[2]; 1 h after release from IBMX
  Proportion of harvested oocytes achieving germinal vesicle breakdown: 17 % of total
[2]; 2 h after release from IBMX
  Proportion of harvested oocytes achieving germinal vesicle breakdown: 67 % of total
[2]; 14 hr following GVBD
  Proportions of oocytes achieving polar body extrusion: 79
[2]; 16 hr following GVBD
  Proportions of oocytes achieving polar body extrusion: 50
[2]; 20 hr following GVBD
  Proportions of oocytes achieving polar body extrusion: 80
[3]
  Numbers of cumulus oocyte complexes released from mice: able to protect against doxorubicin induced oocyte loss and 33 and 17 and 15 and 10 and 18 and 13
[4]
  Glucose tolerance tests in offspring: no change
[5]
  Oocyte yield: restoration of oocyte number and 9 and 17 and 10
[6]
  COC (oocyte) yield in aged females: more than doubled; also recorded: dramatically increased
[7]
  Number of pups born (cisplatin followed by NMN): complete restoration
[8]
  Oocyte yield in high fat fed mice: higher oocyte yield
